Laboratory results published in PubChem BioAssay (NCI).
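Cultured in 96-well plates, cells were exposed to test compound for 48 hours across five concentrations. GI50: concentration for 50% inhibition of growth. TGI: concentration producing complete growth inhibition.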

How the values were obtained:
Assay in all cases: NCI-60 cell line screen, 48 h
IGROV1 ovarian = test system: IGROV1 ovarian
NCI-H460 lung = test system: NCI-H460 lung
HCT-15 colon = test system: HCT-15 colon
SF-295 CNS = test system: SF-295 CNS
NCI-H23 lung = test system: NCI-H23 lung
HT29 colon = test system: HT29 colon
TK-10 renal = test system: TK-10 renal
MDA-MB-231 breast = test system: MDA-MB-231 breast
UO-31 renal = test system: UO-31 renal
SW-620 colon = test system: SW-620 colon
U251 CNS = test system: U251 CNS
HOP-62 NSCLC = test system: HOP-62 NSCLC
PC-3 prostate = test system: PC-3 prostate
SK-MEL-2 melanoma = test system: SK-MEL-2 melanoma
UACC-62 melanoma = test system: UACC-62 melanoma
CCRF-CEM leukemia = test system: CCRF-CEM leukemia
K-562 leukemia = test system: K-562 leukemia
SK-MEL-28 melanoma = test system: SK-MEL-28 melanoma
SN12C renal = test system: SN12C renal
A498 renal = test system: A498 renal
T-47D breast = test system: T-47D breast
SK-OV-3 ovarian = test system: SK-OV-3 ovarian
KM12 colon = test system: KM12 colon
NCI-H522 lung = test system: NCI-H522 lung
MALME-3M melanoma = test system: MALME-3M melanoma
SF-268 CNS = test system: SF-268 CNS
NCI/ADR-RES ovarian = test system: NCI/ADR-RES ovarian
CAKI-1 renal = test system: CAKI-1 renal
A549 NSCLC = test system: A549 NSCLC
DU-145 prostate = test system: DU-145 prostate
LOX IMVI melanoma = test system: LOX IMVI melanoma
SNB-19 CNS = test system: SNB-19 CNS
SF-539 CNS = test system: SF-539 CNS
ACHN renal = test system: ACHN renal
MCF7 breast = test system: MCF7 breast
HL-60(TB) leukemia = test system: HL-60(TB) leukemia
M14 melanoma = test system: M14 melanoma
NCI-H226 lung = test system: NCI-H226 lung
EKVX NSCLC = test system: EKVX NSCLC
HS 578T breast = test system: HS 578T breast
RPMI-8226 leukemia = test system: RPMI-8226 leukemia
OVCAR-8 ovarian = test system: OVCAR-8 ovarian
OVCAR-5 ovarian = test system: OVCAR-5 ovarian
HCC-2998 colon = test system: HCC-2998 colon
786-0 renal = test system: 786-0 renal
HOP-92 NSCLC = test system: HOP-92 NSCLC
BT-549 breast = test system: BT-549 breast
RXF 393 renal = test system: RXF 393 renal
SK-MEL-5 melanoma = test system: SK-MEL-5 melanoma
MOLT-4 leukemia = test system: MOLT-4 leukemia
MDA-MB-435 = test system: MDA-MB-435
OVCAR-4 ovarian = test system: OVCAR-4 ovarian
HCT-116 colon = test system: HCT-116 colon
UACC-257 melanoma = test system: UACC-257 melanoma
COLO 205 colon = test system: COLO 205 colon

## O=C(CCCCCCNC(=O)c1csc(Br)n1)NO
IGROV1 ovarian
  GI50: 1.69 µM
  TGI: > 33.3 µM
NCI-H460 lung
  GI50: 1.25 µM
  TGI: > 33.3 µM
HCT-15 colon
  GI50: 2.16 µM
  TGI: > 33.3 µM
SF-295 CNS
  GI50: 1.66 µM
  TGI: 9.37 µM
NCI-H23 lung
  GI50: 1.9 µM
  TGI: > 33.3 µM
HT29 colon
  GI50: 0.985 µM
  TGI: 5.56 µM
TK-10 renal
  GI50: 0.619 µM
  TGI: 2.55 µM
MDA-MB-231 breast
  GI50: 2.01 µM
  TGI: > 33.3 µM
UO-31 renal
  GI50: 1.12 µM
  TGI: > 33.3 µM
SW-620 colon
  GI50: 0.637 µM
  TGI: 1.58 µM
U251 CNS
  GI50: 1.53 µM
  TGI: 7.23 µM
HOP-62 NSCLC
  GI50: 1.41 µM
  TGI: > 33.3 µM
PC-3 prostate
  GI50: 2.43 µM
  TGI: > 33.3 µM
SK-MEL-2 melanoma
  GI50: 1.18 µM
  TGI: 6.73 µM
UACC-62 melanoma
  GI50: 0.699 µM
  TGI: 2.5 µM
CCRF-CEM leukemia
  GI50: 1.06 µM
  TGI: > 33.3 µM
K-562 leukemia
  GI50: 1.13 µM
  TGI: > 33.3 µM
SK-MEL-28 melanoma
  GI50: 1.29 µM
  TGI: > 33.3 µM
SN12C renal
  GI50: 2.95 µM
  TGI: > 33.3 µM
A498 renal
  GI50: 0.676 µM
  TGI: 2.08 µM
T-47D breast
  GI50: 0.648 µM
  TGI: 1.83 µM
SK-OV-3 ovarian
  GI50: 1.04 µM
  TGI: 5.43 µM
KM12 colon
  GI50: 2.75 µM
  TGI: > 33.3 µM
NCI-H522 lung
  GI50: 0.844 µM
  TGI: 5.09 µM
MALME-3M melanoma
  GI50: 0.787 µM
  TGI: > 33.3 µM
SF-268 CNS
  GI50: 2.43 µM
  TGI: > 33.3 µM
NCI/ADR-RES ovarian
  GI50: 0.694 µM
  TGI: 2.5 µM
CAKI-1 renal
  GI50: 1.12 µM
  TGI: 8.22 µM
A549 NSCLC
  GI50: 1.35 µM
  TGI: 14.4 µM
DU-145 prostate
  GI50: 1.21 µM
  TGI: > 33.3 µM
LOX IMVI melanoma
  GI50: 0.0473 µM
  TGI: 3.79 µM
SNB-19 CNS
  GI50: 3.2 µM
  TGI: > 33.3 µM
SF-539 CNS
  GI50: 1.62 µM
  TGI: > 33.3 µM
ACHN renal
  GI50: 1.18 µM
  TGI: 7.53 µM
MCF7 breast
  GI50: 1.41 µM
  TGI: > 33.3 µM
HL-60(TB) leukemia
  GI50: 1.27 µM
  TGI: > 33.3 µM
M14 melanoma
  GI50: 1.64 µM
  TGI: > 33.3 µM
NCI-H226 lung
  GI50: 5.17 µM
  TGI: > 33.3 µM
EKVX NSCLC
  GI50: 1.99 µM
  TGI: > 33.3 µM
HS 578T breast
  GI50: 0.917 µM
  TGI: 22.1 µM
RPMI-8226 leukemia
  GI50: 0.951 µM
  TGI: 13.4 µM
OVCAR-8 ovarian
  GI50: 0.961 µM
  TGI: 9.58 µM
OVCAR-5 ovarian
  GI50: 1.16 µM
  TGI: > 33.3 µM
HCC-2998 colon
  GI50: 3.4 µM
  TGI: 13.1 µM
786-0 renal
  GI50: 2.44 µM
  TGI: > 33.3 µM
HOP-92 NSCLC
  GI50: 0.706 µM
  TGI: 2.24 µM
BT-549 breast
  GI50: 3.05 µM
  TGI: > 33.3 µM
RXF 393 renal
  GI50: 0.929 µM
  TGI: 3.11 µM
SK-MEL-5 melanoma
  GI50: 1.24 µM
  TGI: 4.9 µM
MOLT-4 leukemia
  GI50: 1.02 µM
  TGI: > 33.3 µM
MDA-MB-435
  GI50: 1.05 µM
  TGI: 6.3 µM
OVCAR-4 ovarian
  GI50: 3.65 µM
  TGI: > 33.3 µM
HCT-116 colon
  GI50: 0.892 µM
  TGI: 3.78 µM
UACC-257 melanoma
  GI50: 0.853 µM
  TGI: 3.33 µM
COLO 205 colon
  GI50: 0.7 µM
  TGI: 1.78 µM
